Where a name gives a salt, the structure may show the parent alone.
What was measured:
[1] = pH of the formulations / aqueous solutions; assay type: physicochemical; conditions: aqueous solutions without buffer
[2] = aqueous solution 45.00 mg/mL, pH 4.8
Method: The proposed formulations are calculated for a single puff of 50 μL/nostril.

[3] = highest concentration, 14 days of treatment tid in rabbits
[4] = Human absorption: Tizaspray intranasally vs Sirdalud tablets, randomised cross-over, plasma levels of tizanidine by LC/MS/MS over 12 hours; conditions: highest concentration, single administration in humans
Method: The plasma levels of tizanidine were determined by LC/MS/MS over 12 hours from the administration.
R=Sirdalud tablet; T1=1*70 μL/puff by intranasal route; T2=2*70 μL/puff by intranasal route.

[5] = background, cited from earlier work
[6] = rabbits, 3.00 mg/kg of tizanidine hydrochloride, preliminary
[7] = animal data, local administration; cited from earlier work

SMILES | pH of aqueous solutions [1] | tolerability on the nasal mucosa (redness or pain) [2] | tolerability on the nasal mucosa [3] | absorption by intranasal route [4] | absorption by oral route ([5]; 2 or 4 mg tablets) | T1/2z ([5]; known pharmacokinetic profile) [h] | Tmax ([5]; known pharmacokinetic profile) [h] | first-pass effect ([5]; oral route) | bioavailability by intranasal route ([6]; IN vs IM) | intranasal absorption ([6]; IN, without any enhancer) | activity compared with clonidine [7]
Clc1ccc2nsnc2c1NC1=NCCN1 [tizanidine hydrochloride] | 4.8 | tolerated by the nasal mucosa without any local side effect | well tolerated on the nasal mucosa | rapidly and completely absorbed | – | – | – | – | – | – | –
Clc1ccc2nsnc2c1NC1=NCCN1 [Tizanidine, 5-chloro-N-(4,5-dihydro-1H-imidazol-2-yl)-2,1,3-benzothia-diazol-4-amine] | – | – | – | – | well and rapidly absorbed by oral route | 1 to 2 | 1 to 2 | extensive first-pass effect | close to that of intramuscular route (IM) | rapidly absorbed | equivalent activity of tizanidine and clonidine

From US20150141473A1, “PHARMACEUTICAL DOSAGE FORMS OF TIZANIDINE AND ADMINISTRATION ROUTES THEREOF” (priority 2012, published 2015)
